Molecules are shown by their SMILES.

This series in a line: crystallinity of efavirenz upon compression. It counts as physicochemical. Conditions: compression into tablet.

In the case of `O=C1Nc2ccc(Cl)cc2[C@@](C#CC2CC2)(C(F)(F)F)O1` [efavirenz, (−)-6-chloro-4-cyclopropylethynyl-4-trifluoromethyl-1,4-dihydro-2H-3,1-benzoxazin-2-one], the crystallinity upon compression entry is reported as “loses crystallinity upon compression”.

The values are drawn from patent US7595063B2, “Compressed tablet formulation” (Merck & Co., Inc., priority 1998, dated 2009).
